Reference: patent publication US20240351959A1, “USE OF ETHYNYLPYRIDINE COMPOUNDS AS NITRIFICATION INHIBITORS” (BASF SE, priority 2021, published 2024)

Tests used:
nitrification [1] = experiment: % NH4-N recovery from fertilized NH4-N in soil Limburgerhof; settings: 20° C.
Protocol: The compounds according to the invention have been further tested in terms of their % NH4—N recovery from fertilized NH4—N.
The compounds according to general formula I were tested as follows in terms of the inhibition of nitrification:
100 g soil (soil Limburgerhof with pH(CaCl2) 6.8; 73% sand, 23% silt, 4% clay, which is classified according to FAO as a sandy loam) is filled into 500 ml plastic bottles and is moistened to 50% water holding capacity. The soil is incubated at 20° C. for two weeks prior to the experiments to activate the microbial biomass. 1 ml test solution, containing the compounds of formula I or the comparative compounds in the appropriate concentration (0.1, 0.3 or 1% (w/w) of fertilized NH4—N), and 10 mg nitrogen in the form of ammoniumsulfate-N(NH4—N) is added to the soil and everything mixed well. Unfertilized controls received 1 ml pure water. Bottles are capped but loosely to allow air exchange. The bottles are then incubated at 20° C. for 14 days and 28 days.
(§1) For analysis, 300 ml of a 1% K2SO4-solution is added to the bottle containing the soil and shaken for 2 hours in a horizontal shaker at 150 rpm. Then the whole solution is filtered through a filter (Macherey-Nagel Filter MN 807%). Ammonium content is then analyzed in the filtrate using an autoanalyzer. Ammonium was quantified via an indophenol blue dye at 660 nm.
The nitrification inhibition is expressed as % of NH4—N recovery from fertilized NH4—N(100%) after subtraction of unfertilized control soil. The number of replicates is 4.
For comparison of the % NH4—N recovery of the compound of the invention, i.e. Example 4, with the comparative compounds as shown above from different trials, the standard deviation of a common treatment of all trials with DMPP (3,4-dimethylpyrazole phosphate) was calculated. As the standard deviation was low, data from different trials were pooled together to compare the average % NH4—N recovery for the compound of the invention and the comparative compounds as shown above.

nitrification [2] = experiment: inhibition of nitrification in soil incubation (NI); settings: soil incubated at 20° C., 14 days; for NI @ 0.3%: compound at 0.3% of nitrogen N; for NI @ 1%: compound at 1% of nitrogen N; for NI @ 0.1%: compound at 0.1% of nitrogen N
Protocol: The compounds of the invention have been tested as follows in terms of the inhibition of nitrification:
100 g soil is filled into 500 ml plastic bottles (e.g. soil sampled from the field) and is moistened to 50% water holding capacity. The soil is incubated at 20° C. for two weeks to activate the microbial biomass. 1 ml test solution, containing the compound of formula I in the appropriate concentration (usually 0.1, 0.3 or 1% of nitrogen N), or DMSO and 10 mg nitrogen in the form of ammoniumsulfate-N is added to the soil and everything mixed well. Bottles are capped but loosely to allow air exchange. The bottles are then incubated at 20° C. for 0 and 14 days.
as §1, with “Ammonium and nitrate” for “Ammonium”, “in” for “using”, “autoanalyzer” for “autoanalyzer. Ammonium was quantified via an indophenol blue dye”, “550 nm (Merck, AA11).” for “660 nm.”
The inhibition (NI® a specified concentration) is calculated as follows: […]

N2O emission = experiment: reduction of N2O emission, potted corn plants in greenhouse soil; set-up: species or system Zea mais; settings: 100 ppm ammonium sulfate, cumulated emissions over two weeks, relative to untreated but fertilized control
Protocol: Example 2 was additionally tested in terms of the reduction of N20 emission Corn seeds (Zea mais, cultivar “Shorty”) were planted 1 seed/pot in 8 cm pots in standard greenhouse soil (mixture of peat, loam and sand) and grown in a greenhouse at 20° C. and 60% humidity. Plants were grown for ten days in a completely randomized set-up. On day 6, plants were watered but not fertilized to 50% water holding capacity then left to dry out. On day ten, the plants were separated out and each pot set onto a plant saucer designed with an inner compartment for the pot and an outer ring that is filled with water. At time 0 water with or without 100 ppm ammonium sulfate and with or without the given concentration of nitrification inhibitor (1% and 0.3%) was applied to the plant such that the water holding capacity of the soil was around 50-60%. Then a gas sampling chamber was placed over the plant saucer such that the rim fit into the ring filled with water to create a gas-tight chamber and 20 cc air from the chamber were drawn into a syringe and immediately emptied in to a Vacutainer (Labco, 12 ml volume). […] Samples were analyzed in a Shimadzu 2014 GC equipped with an ECD system. Data was calculated as the cumulated emissions over the measurement period and the % reduction of N20 emissions relative to the untreated but fertilized control was calculated.

Row | Structure (SMILES) | % NH4—N recovery after 14 days (nitrification [1]; 0.1 wt.-% relative to NH4—N) | % NH4—N recovery after 14 days (nitrification [1]; 0.3 wt.-% relative to NH4—N) | % NH4—N recovery after 28 days (nitrification [1]; 0.3 wt.-% relative to NH4—N) | % NH4—N recovery after 14 days (nitrification [1]; 1 wt.-% relative to NH4—N) | % NH4—N recovery after 28 days (nitrification [1]; 1 wt.-% relative to NH4—N) | NI @ 0.3% (nitrification [2]) | NI @ 1% (nitrification [2]) | NI @ 0.1% (nitrification [2]) | % reduction of N2O relative to control @ 0.3% (N2O emission; nitrification inhibitor 0.3%) | % reduction of N2O relative to control @ 1% (N2O emission; nitrification inhibitor 1%)
1 | C[Si](C)(C)C#Cc1ccccn1 [Comparative Example A] | 46.50% | 60.30% | 51.2% | 67.80% | 68.1% |  |  |  |  | 
2 | C[Si](C)(C)C#Cc1ccc(Cl)cn1 [Comparative Example B] | 20.94% | 44.40% | 11.1% | 59.90% | 61.0% |  |  |  |  | 
3 | Clc1cccc(C(Cl)(Cl)Cl)n1 [Comparative Example, reference compound] |  |  |  |  |  | 35% | 54% |  |  | 
4 | C#Cc1cc(Cl)ccn1 [Example 1] |  |  |  |  |  |  | 83% | 46% |  | 
5 | C#Cc1ccc(Cl)cn1 [Example 2] |  |  |  |  |  |  | 76% | 74% | 91% | 97%
6 | C#Cc1ccc(Cl)nc1 [Example 3] |  |  |  |  |  | 84% | 94% | 68% |  | 
7 | C#Cc1ccc(Cl)cn1 [Example 4] | 74.00% | 68.50% | 59.0% | 72.00% | 56.0% |  |  |  |  | 
